# Laboratory results taken from patent publication US10717725B2, “Pyrrolidine GPR40 modulators” (BRISTOL-MYERS SQUIBB COMPANY, priority 2014, dated 2020).
# Where a name gives a salt, the structure may show the parent alone. Read-outs that look alike come from different tables or passages of the source.
# Columns and labels:
# hGPR40 [1] = biological target: T1, hGPR40 (Homo sapiens, UniProt O14842); assay: FDSS-based intracellular calcium assay in cell lines expressing GPR40; design: 3xFLAG; expressed in transfected cells; conditions: intracellular Ca2+ response, cells expressing GPR40, FDSS reader
# T1 sequence (O14842 whole entry): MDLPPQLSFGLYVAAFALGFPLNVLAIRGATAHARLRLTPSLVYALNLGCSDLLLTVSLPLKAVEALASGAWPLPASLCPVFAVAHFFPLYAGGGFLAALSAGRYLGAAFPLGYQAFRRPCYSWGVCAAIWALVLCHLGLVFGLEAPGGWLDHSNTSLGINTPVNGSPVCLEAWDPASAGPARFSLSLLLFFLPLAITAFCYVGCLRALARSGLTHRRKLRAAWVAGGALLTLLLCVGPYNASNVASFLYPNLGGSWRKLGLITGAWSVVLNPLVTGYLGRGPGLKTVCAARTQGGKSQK
# Description: FDSS-Based Intracellular Calcium Assay
# Cell lines expressing GPR40 are generated using the pDEST-3×FLAG gene expression system and are cultured in culture medium comprising the following components: F12 (Gibco #11765), 10% lipid deprived fetal bovine serum, 250 μg/ml zeocin and 500 μg/ml G418. To conduct the fluorescent imaging plate reader (FLIPR)-based calcium flux assay to measure intracellular Ca^2+ response, cells expressing GPR40 are plated on 384 well plates (BD Biocoat #356697) at a density of 20,000 cells/20 μL medium per well in phenol red and serum-free DMEM (Gibco #21063-029) and incubated overnight. Using BD kit #s 80500-310 or -301, the cells are incubated with 20 μL per well of Hank's buffered salt solution with 1.7 mM probenecid and Fluo-3 at 37° C. for 30 min. Compounds are dissolved in DMSO and diluted to desired concentrations with assay buffer and added to the cells as 3× solution (20 μL per well). Run fluorescence/luminescence reader FDSS (Hamamatsu) to read intracellular Ca^2+ response.
# hGPR40 [2] = biological target: T1, hGPR40
Molecule,EC50 (hGPR40 [1]) [nM],EC50 (hGPR40 [2]) [nM]
"2-((2S,3S,4R)-1-(4-(((3,4-trans)-1-(5-Chloro-2-methoxypyridin-4-yl)-3-methylpiperidin-4-yl)oxy)phenyl)-4-(3-methoxy-2-methylpropoxy)-3-methylpyrrolidin-2-yl)acetic acid [Example 21, Isomer 2]",100,
"COCCCO[C@H]1CN(c2ccc(OC3CCN(c4cc(OC)ncc4Cl)CC3CC(C)C)nc2)[C@@H](CC(=O)O)[C@@H]1C (single isomer, unassigned) [Example 18, Isomer 2]",290,
"COCCCO[C@H]1CN(c2cnc(OC3CCN(c4cc(OC)ncc4Cl)CC3C)c(C(F)(F)F)c2)[C@@H](CC(=O)O)[C@@H]1C (single isomer, unassigned) [Example 24]",65,
"COCCCO[C@H]1CN(c2cnc(O[C@@H]3CCN(c4cc(OC)ncc4Cl)C[C@H]3C)nc2)[C@@H](CC(=O)O)[C@@H]1C [Example 33, 2-((2S,3 S,4R)-1-(2-(((3R,4R)-1-(5-Chloro-2-methoxypyridin-4-yl)-3-methylpiperidin-4-yl)oxy)pyrimidin-5-yl)-4-(3-methoxypropoxy)-3-methylpyrrolidin-2-yl)acetic acid]",101,
"CCOc1ccc(F)c(N2CCC(Oc3ccc(N4C[C@H](CCCOC)C[C@@H]4CC(=O)O)cc3)CC2)c1 [Example 10, 2-((2R,4R)-1-(4-((1-(5-Ethoxy-2-fluorophenyl)piperidin-4-yl)oxy)phenyl)-4-(3-methoxypropyl)pyrrolidin-2-yl)acetic acid, TFA]",380,47
"CCCCOc1cc(N2C[C@H](OCCCOC)[C@@H](C)[C@@H]2CC(=O)O)cnc1OC1CCN(c2cc(OC)ncc2Cl)CC1C (single isomer, unassigned) [Example 23, TFA]",110,
"CCOc1ccc(F)c(N2CCC(Oc3ccc(N4C[C@H](OCCCOC)[C@@H](C)[C@@H]4CC(=O)O)cc3F)C(C)C2)c1 (single isomer, unassigned) [Example 20]",110,
"COCCOCO[C@H]1CN(c2ccc(OC3CCN(c4cc(OC)ncc4Cl)CC3C)cc2)[C@@H](CC(=O)O)[C@@H]1C (single isomer, unassigned) [Example 28]",180,
"COCCCO[C@H]1CN(c2cnc(OC3CCN(c4cc(OC)ncc4Cl)CC3C)c(C)c2)[C@@H](CC(=O)O)[C@@H]1C (single isomer, unassigned) [Example 25]",300,
"CCOc1ccc(F)c(N2CCC(Oc3ccc(N4C[C@H](OCCCOC)[C@@H](C)[C@@H]4CC(=O)O)cc3)CC2)c1 [Example 3, 2-((2S,3S,4R)-1-(4-((1-(5-Ethoxy-2-fluorophenyl)piperidin-4-yl)oxy)phenyl)-4-(3-methoxypropoxy)-3-methylpyrrolidin-2-yl)acetic acid, HCl]",200,
"COCCCO[C@H]1CN(c2cnc(OC3CCN(c4cc(OC)ncc4Cl)CC3)c(C(F)(F)F)c2)[C@@H](CC(=O)O)[C@@H]1C [Example 30, 2-((2S,3S,4R)-1-(6-((1-(5-Chloro-2-methoxypyridin-4-yl)piperidin-4-yl)oxy)-5-(trifluoromethyl)pyridin-3-yl)-4-(3-methoxypropoxy)-3-methylpyrrolidin-2-yl) acetic acid]",61,
"CCOc1ccc(F)c(N2CCC(Oc3ccc(N4C[C@H](OCCCOC)[C@@H](C)[C@@H]4CC(=O)O)cc3)C(C)C2)c1 (single isomer, unassigned) [Example 14, HCl]",51,7
"CCOc1ccc(F)c(N2CCC(Oc3ccc(N4C[C@H](OCCOC)C[C@@H]4CC(=O)O)cc3)CC2)c1 [Example 13, 2-((2R,4R)-1-(4-((1-(5-Ethoxy-2-fluorophenyl)piperidin-4-yl)oxy)phenyl)-4-(2-methoxyethoxy)pyrrolidin-2-yl)acetic acid, TFA]",1000,
"COCCCO[C@H]1CN(c2ccc(OC3CCN(c4cc(OC)ncc4Cl)CC3CC(C)C)cc2)[C@@H](CC(=O)O)[C@@H]1C (single isomer, unassigned) [Example 19, Isomer 1]",1500,
"2-((2S,3S,4R)-1-(4-(((3,4-trans)-1-(5-Chloro-2-methoxypyridin-4-yl)-3-methylpiperidin-4-yl)oxy)phenyl)-4-(3-methoxy-2-methylpropoxy)-3-methylpyrrolidin-2-yl)acetic acid [Example 21, Isomer 1]",120,
"COCCCO[C@H]1CN(c2ccc(OC3CCN(c4cc(OC)ncc4Cl)CC3CC(C)C)cc2)[C@@H](CC(=O)O)[C@@H]1C (single isomer, unassigned) [Example 19, Isomer 2]",230,
"COCCCO[C@H]1CN(c2ccc(OC3CCN(c4cc(OC)ncc4Cl)CC3C)nc2)[C@@H](CC(=O)O)[C@@H]1C (stereo partly drawn) [Example 2, 2-((2S,3S,4R)-1-(6-(((3,4-trans)-1-(5-Chloro-2-methoxypyridin-4-yl)-3-methylpiperidin-4-yl)oxy)pyridin-3-yl)-4-(3-methoxypropoxy)-3-methylpyrrolidin-2-yl)acetic acid, HCl]",180,27
"CCOc1ccc(F)c(N2CCC(Oc3ccc(N4C[C@H](OCCCOC)[C@@H](C)[C@@H]4CC(=O)O)cn3)CC2)c1 [Example 5, 2-((2S,3S,4R)-1-(6-((1-(5-Ethoxy-2-fluorophenyl)piperidin-4-yl)oxy)pyridin-3-yl)-4-(3-methoxypropoxy)-3-methylpyrrolidin-2-yl)acetic acid]",170,
"COCCCO[C@H]1CN(c2ccc(OC3CCN(c4cc(OC)ncc4Cl)CC3C)cc2F)[C@@H](CC(=O)O)[C@@H]1C (single isomer, unassigned) [Example 26]",110,

# Continued by falling EC50 (hGPR40 [1]), values first:
EC50 (hGPR40 [1]) [nM],EC50 (hGPR40 [2]) [nM],Molecule
2000,,"COCCCO[C@H]1CN(c2ccc(OC3CCN(c4cc(OC)ncc4Cl)CC3C)cc2F)[C@H](CC(=O)O)[C@@H]1C (single isomer, unassigned) [Example 27]"
1300,,"COCCCO[C@H]1CN(c2ccc(OC3CCN(c4cc(OC)ncc4Cl)CC3CC(C)C)nc2)[C@@H](CC(=O)O)[C@@H]1C (single isomer, unassigned) [Example 18, Isomer 1]"
1100,,"CCc1cc(N2CCC(Oc3ccc(N4C[C@H](OCCCOC)[C@@H](C)[C@@H]4CC(=O)O)cc3)CC2)c(Cl)cn1 [Example 8, 2-((2S,3S,4R)-1-(4-((1-(5-Chloro-2-ethylpyridin-4-yl)piperidin-4-yl)oxy)phenyl)-4-(3-methoxypropoxy)-3-methylpyrrolidin-2-yl)acetic acid, HCl]"
980,,"CCOc1ccc(F)c(N2CCC(Oc3ccc(N4C[C@H](OCCCS(C)(=O)=O)[C@@H](C)[C@@H]4CC(=O)O)cc3)CC2)c1 [Example 16, 2-((2S,3 S,4R)-1-(4-((1-(5-Ethoxy-2-fluorophenyl)piperidin-4-yl)oxy)phenyl)-3-methyl-4-(3-(methylsulfonyl)propoxy)pyrrolidin-2-yl)acetic acid]"
200,19,"COCCCO[C@H]1CN(c2ccc(OC3CCN(c4cc(OC)ncc4Cl)CC3)nc2)[C@@H](CC(=O)O)[C@@H]1C [Example 6, 2-((2S,3S,4R)-1-(6-((1-(5-Chloro-2-methoxypyridin-4-yl)piperidin-4-yl)oxy)pyridin-3-yl)-4-(3-methoxypropoxy)-3-methylpyrrolidin-2-yl)acetic acid]"
190,,"COc1cc(N2CCC(Oc3ccc(N4C[C@H](OCCCC#N)[C@@H](C)[C@@H]4CC(=O)O)cc3)C(C)C2)c(Cl)cn1 (stereo partly drawn) [Example 32, 2-((2S,3S,4R)-1-(4-(((3,4-trans)-1-(5-Chloro-2-methoxypyridin-4-yl)-3-methylpiperidin-4-yl)oxy)phenyl)-4-(3-cyanopropoxy)-3-methylpyrrolidin-2-yl)acetic acid]"
170,35,"CCOc1ccc(F)c(N2CCC(Oc3ccc(N4C[C@H](OCCCOC)[C@@H](C)[C@@H]4CC(=O)O)cn3)C(C)C2)c1 (single isomer, unassigned) [Example 9, HCl]"
97,,"COCCCO[C@H]1CN(c2ccc(OC3CCN(c4cc(OC)ncc4Cl)CC3C)c(F)c2)[C@@H](CC(=O)O)[C@@H]1C (single isomer, unassigned) [Example 7]"
89,,"COCCCO[C@H]1CN(c2cnc(OC3CCN(c4cc(OC)ncc4Cl)CC3C)c(F)c2)[C@@H](CC(=O)O)[C@@H]1C (single isomer, unassigned) [Example 22]"
73,13,"COCCCO[C@H]1CN(c2ccc(OC3CCN(c4cc(OC)ncc4Cl)CC3)cc2)[C@@H](CC(=O)O)[C@@H]1C [Example 4, 2-((2S,3S,4R)-1-(4-((1-(5-Chloro-2-methoxypyridin-4-yl)piperidin-4-yl)oxy)phenyl)-4-(3-methoxypropoxy)-3-methylpyrrolidin-2-yl)acetic acid]"
56,5,"COCCCO[C@H]1CN(c2ccc(O[C@@H]3CCN(c4cc(OC)ncc4Cl)C[C@H]3C)cc2)[C@@H](CC(=O)O)[C@@H]1C (single isomer, unassigned) [Example 1]"
